These results are taken from US8158803B2, “Heterocyclic antiviral compounds” (Roche Palo Alto LLC, priority 2009, dated 2012).

pIC50: −log10 of the molar value. Read-outs that look alike come from different tables or passages of the source.

In series [1] the target is T1, HCV polymerase (NS5B570n-Con1) (Hepatitis C virus genotype 1b, UniProt Q9WMX2).
T1 construct: contains a 21 amino acid deletion at the C-terminus relative to the full-length HCV polymerase; 6-histidine (N); made in house; host or cells: E. coli BL21(DE) pLysS, plasmid pET17b
In words: HCV NS5B RNA polymerase activity assay. The class given is biochemical, HCV Con1 strain. As to the method: The enzymatic activity of HCV polymerase (NS5B570n-Con1) was measured as the incorporation of radiolabeled nucleotide monophosphates into acid insoluble RNA products. Unincorporated radiolabeled substrate was removed by filtration and scintillant was added to the washed and dried filter plate containing radiolabeled RNA product. The amount of RNA product generated by NS5B570-Con1 at the end of the reaction was directly proportional to the amount of light emitted by the scintillant.
The N-terminal 6-histidine tagged HCV polymerase, derived from HCV Con1 strain, genotype 1b (NS5B570n-Con1) contains a 21 amino acid deletion at the C-terminus relative to the full-length HCV polymerase and was purified from E. coli strain BL21(DE) pLysS. The construct, containing the coding sequence of HCV NS5B Con1 (GenBank accession number AJ242654) was inserted into the plasmid construct pET17b, downstream of a T7 promoter expression cassette and transformed into E. coli. A single colony was grown overnight as a starter culture and later used inoculate 10 L of LB media supplemented with 100 μg/mL ampicillin at 37° C. Protein expression was induced by the addition of 0.25 mM isopropyl-β-D-thiogalactopyranoside (IPTG) when optical density at […] of the culture was between 0.6 and 0.8 and cells were harvested after 16 to 18 h at 30° C. NS5B570n-Con1 was purified to homogeneity using a three-step protocol including subsequent column chromatography on Ni-NTA, SP-Sepharose HP and Superdex 75 resins.
Reaction mixtures were assembled in 96-well filter plates (cat #MADVN0B, Millipore Co.) and incubated for 2 h at 30° C. Reactions were stopped by addition of 10% final (v/v) trichloroacetic acid and incubated for 40 min at 4° C. […]
The amount of light emitted from the scintillant was converted to counts per minute (CPM) on a Topcount® plate reader (Perkin-Elmer, Energy Range: Low, Efficiency Mode Normal, Count Time: 1 min, Background Subtract: none, Cross talk reduction: Off).
Data was analyzed in Excel® (Microsoft) and ActivityBase® (Idbs®). […] All data was expressed as a percentage of the positive control. […]

In series [2] the test system is genotype 1b HCV replicon in Huh7 cell line 2209-23. Nature of the series: HCV replicon assay (Renilla luciferase reporter). The class given is cell-based. To be noted: 2209-23 cells, three days incubation.
In series [3] the test system is HCV replicon cells (2209-23). To be noted: read-out: Cytotoxicity CC50; 2209-23 cells, WST-1. (In general: Tetrazolium assays rely on reduction of a dye to a coloured formazan, in cell work by metabolically active cells.)
The next series concerns HCV. To be noted: cited from earlier work.
The next series in a line: in vitro. Conditions: human.

A word on the pIC50: it is the negative decadic logarithm of the IC50, by convention in mol/L. One may read the melting point as the temperature, or range, at which the solid turns liquid.

For “N-(6-{2-[3-tert-Butyl-6-hydroxy-2-methoxy-5-(2-oxo-1,2-dihydro-pyridin-3-yl)-phenyl]-cyclopropyl}-pyridin-3-yl)-methanesulfonamide [Compound I-4]”, the negative-log IC50 (pIC50) in series [1] (NS5B570n-Con1, genotype 1b, read-out: IC50 HCV Polymerase Assay) was 8.10; in series [2], 7.11. Moreover, the CC50 in series [3] is 32.8 µM.
Consider `NC(=O)c1ncn([C@@H]2O[C@H](CO)[C@@H](O)[C@H]2O)n1` [ribavirin, 1-((2R,3R,4S,5R)-3,4-Dihydroxy-5-hydroxymethyl-tetrahydro-furan-2-yl)-1H-[1,2,4]triazole-3-carboxylic acid amide], for which, in the series with HCV (human, in vivo), the toxicity entry was “exhibits significant toxicity and is known to induce anemia”. For the same molecule, the “patients with serum amino transferase levels reduced to normal” value with HCV (monotherapy) is given as 40%.
In turn, `CC(C)(C)c1cc(-c2ccc[nH]c2=O)c(O)c(C2CC2c2ccc(NS(C)(=O)=O)cc2)c1` (centres unmarked) [Compound I-3, N-(4-{2-[5-tert-Butyl-2-hydroxy-3-(2-oxo-1,2-dihydro-pyridin-3-yl)-phenyl]-cyclopropyl}-phenyl)-methanesulfonamide] returned a melting point of 148 to 150 °C. In addition, the pIC50 in series [1] was 7.92.
In turn, `COc1c(C2CC2c2ccc(NS(C)(=O)=O)cc2)cc(-c2ccc[nH]c2=O)cc1C(C)(C)C` (centres unmarked) [Compound I-2, N-(4-{2-[3-tert-Butyl-2-methoxy-5-(2-oxo-1,2-dihydro-pyridin-3-yl)-phenyl]-cyclopropyl}-phenyl)-methanesulfonamide] gave a negative logarithm of the IC50 (pIC50) in series [2] (Hepatitis C virus, Huh-7, 72 h) of 6.96. In the series “in vitro”, this molecule showed a CC50 of 15 µM.
The molecule `CC(C)(C)c1cc(-c2ccc[nH]c2=O)cc(C2CC2c2ccc(NS(C)(=O)=O)cc2)c1` (centres unmarked) [Compound I-1, N-(4-{2-[3-tert-Butyl-5-(2-oxo-1,2-dihydro-pyridin-3-yl)-phenyl]-cyclopropyl}-phenyl)-methanesulfonamide] gave a melting point of 162 to 164 °C. Besides, in series [1], the pIC50 was 7.68.
